Consider 4 compounds from patent publication US20260274829A1, “NEW E3 UBIQUITIN LIGASE LIGAND, PROTEIN DEGRADATION AGENT AND USE THEREOF” (GLUETACS THERAPEUTICS (SHANGHAI) CO., LTD., priority 2023, published 2026).

Experiment [1] relates to NCI-H1975 (H1975). Kind of experiment: CCK-8 tumor cell proliferation IC50, NCI-H1975. As to conditions: Homo sapiens, Table B3, designed based on the EGFR inhibitors, 96 hours, read-out: Inhibitory activity (IC50, nM) on tumor cell proliferation: H1975. How it is done:
(§1) The tumor cells used herein were cultured in a cell culture medium listed in table A1 at 37° C. in an incubator with 5% CO2. Prior to experimentation, all cell lines used were correctly identified by STR profiling, and tested negative for mycoplasma contamination using a mycoplasma detection kit through routine screenings.
(§2) IC50 values of the compounds of the present disclosure (including the compounds in Table 1, and compounds of examples) were measured using the Meilun Cell Counting Kit-8 kit from Dalian Meilun Biotech Co., Ltd. Assay details are as follows: tumor cells were seeded in a 96-well plate at a density listed in Table A2. After 24 h, 100 μL of the inoculated cells were treated with 0.5 μL of the compounds of the present disclosure (including the compounds in Tables 1 and 2, and compounds of examples) at 10 different successively decreasing concentrations (starting at the highest concentration of 1 μM; 5-fold serial dilutions). […] The growth inhibition of the compounds of the present disclosure on cells was plotted by Prism Graphpad software, and the IC50 values of the compounds of the present disclosure were calculated therefrom.

Experiment [2] deals with MM.1R. Kind of experiment: CCK-8 tumor cell proliferation IC50, MM.1R. The following applies: Table B4, designed based on the CDK4/6 inhibitors, 72 hours, read-out: Inhibitory activity (IC50, nM) on tumor cell proliferation: MM.1R. How it is done: as §1, §2
For experiment [3], the system named is MV-4-11. Kind of experiment: CCK-8 tumor cell proliferation IC50, MV-4-11. As to conditions: Homo sapiens, MV4-11, MV-4-11 cells, compounds designed based on the IRAK4 inhibitors, read-out: Inhibitory activity (IC50, nM) on tumor cell proliferation, MV-4-11. How it is done:
as §1, §2

Experiment [4] has as its system LNcap. In words: CCK-8 tumor cell proliferation IC50, LNcap. As to conditions: Homo sapiens, Lncap cells, compounds designed based on the IRAK4 inhibitors, read-out: Inhibitory activity (IC50, nM) on tumor cell proliferation, Lncap. How it is done:
as §1, §2

In experiment [5] the test system is CCRF-CEM. Kind of experiment: CCK-8 tumor cell proliferation IC50, CCRF-CEM. The following applies: Homo sapiens, CCRF-CEM cells, compounds designed based on the IRAK4 inhibitors, read-out: Inhibitory activity (IC50, nM) on tumor cell proliferation, CCRF-CEM. How it is done: as §1, §2
In experiment [6] the test system is H1299. Kind of experiment: CCK-8 tumor cell proliferation IC50, H1299. The following applies: Homo sapiens, NCI-H1299, H1299 cells, compounds designed based on the IRAK4 inhibitors, read-out: Inhibitory activity (IC50, nM) on tumor cell proliferation, H1299. Further details: species or system human. Here is the method: as §1
as §2, with “dilutions). After the cells were treated with the compounds of the present disclosure for a period of time, the cell viability detection reagent was added to the culture medium for cell viability assessment according to the instructions provided with the CCK-8 kit.” for “dilutions).”

Experiment [7] deals with Jurkat. In words: CCK-8 tumor cell proliferation IC50, Jurkat. As to conditions: Homo sapiens, Jurkat cells, compounds designed based on the IRAK4 inhibitors, read-out: Inhibitory activity (IC50, nM) on tumor cell proliferation, Jurkat. How it is done: as §1, §2
Experiment [8] concerns SR. Kind of experiment: CCK-8 tumor cell proliferation IC50, SR. As to conditions: Homo sapiens, SR cells, compounds designed based on the IRAK4 inhibitors, read-out: Inhibitory activity (IC50, nM) on tumor cell proliferation, SR. How it is done: as §1, §2

Take `O=C1CCN(c2ccc(CN3C4CCC3CN(c3ccc(-c5cc(F)c6c(c5)C(=O)N(C(C(=O)Nc5nccs5)c5ncn7c5CCC7)C6)cc3)C4)cn2)C(=O)N1` (stereo not drawn) [GT-06256, 2-(6,7-dihydro-5H-pyrrolo[1,2-c]imidazol-1-yl)-2-(6-(4-(8-((6-(2,4-dioxotetrahydropyrimidin-1(2H)-yl)pyridin-3-yl)methyl)-3,8-diazabicyclo[3.2.1]octan-3-yl)phenyl)-4-fluoro-1-oxoisoindolin-2-yl)-N-(thiazol-2-yl)acetamide]: the IC50 in experiment [1] lay within 1 to 10 nM.
On to `O=C1CCC(Nc2cccc(CN3C4CCC3CN(c3ccc(-c5cc(F)c6c(c5)C(=O)N(C(C(=O)Nc5nccs5)c5ncn7c5CCC7)C6)cc3)C4)c2)C(=O)N1` (stereo not drawn) [GT-06257, 2-(6,7-dihydro-5H-pyrrolo[1,2-c]imidazol-1-yl)-2-(6-(4-(8-(3-((2,6-dioxopiperidin-3-yl)amino)benzyl)-3,8-diazabicyclo[3.2.1]octan-3-yl)phenyl)-4-fluoro-1-oxoisoindolin-2-yl)-N-(thiazol-2-yl)acetamide], for which the IC50 in experiment [1] lay in the range of 1 to 10 nM.
For the compound `CCN1CCN(Cc2ccc(Nc3ncc(F)c(-c4cc(F)c5nc(C)n(C(C)C)c5c4)n3)nc2)CC1` [abemaciclib], the IC50 in experiment [2] lay within 1000 to 5000 nM.
Turning to `Cc1cc(-c2nc(C(=O)Nc3cc4oc(N5CCOCC5)nc4nc3N3CC[C@@H](O)C3)co2)ccn1` [emavusertib], the IC50 in experiment [3] is 50 to 100 nM; in experiment [4], over 10000 nM; in experiment [5] it was over 10000 nM; in experiment [6], over 10000 nM; in experiment [7], over 10000 nM; in experiment [8], over 10000 nM.
